This is an account of results in PMC3985777 (Biochemistry, 2014).

Each structure is given as a SMILES string.

In assay [1] the target is HasAp (Pseudomonas aeruginosa, UniProt G3XD33, H83A). Briefly: biochemical.
The target in assay [2] is HasAp (Pseudomonas aeruginosa, UniProt G3XD33, Y75A). In words: biochemical.

For `C=CC1=C(C)C2=Cc3c(C=C)c(C)c4[n]3[Fe]([Cl])[n]3c(c(C)c(CCC(=O)O)c3=CC3=NC(=C4)C(C)=C3CCC(=O)O)=CC1=N2` [hemin], the results for the Kd on HasAp [1] and on HasAp [2] were 30 µM and 129 µM, respectively.
